The target in the test is T1, Orotidine 5'-phosphate decarboxylase (Saccharomyces cerevisiae S288c, UniProt P03962).
T1 sequence (P03962 whole entry): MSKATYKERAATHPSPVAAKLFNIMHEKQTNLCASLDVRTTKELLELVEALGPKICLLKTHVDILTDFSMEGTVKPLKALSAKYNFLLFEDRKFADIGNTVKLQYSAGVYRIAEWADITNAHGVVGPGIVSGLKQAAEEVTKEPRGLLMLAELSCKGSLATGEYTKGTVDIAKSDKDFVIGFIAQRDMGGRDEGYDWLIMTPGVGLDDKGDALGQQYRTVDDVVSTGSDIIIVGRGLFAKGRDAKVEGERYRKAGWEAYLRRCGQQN
As to the kind of experiment: Inhibition of Saccharomyces cerevisiae ODCase at 25 degreeC by competitive binding assay.

Broadly, the Ki is the equilibrium dissociation constant of an inhibitor or competing ligand from its target. Low values mean tighter binding, high ones weaker binding.

In turn, `O=c1cnn([C@@H]2O[C@H](COP(=O)(O)O)[C@@H](O)[C@H]2O)c(=O)[nH]1` [6-AZA-URIDINE MONOPHOSPHATE] displayed a Ki of 64 nM.

The values above are taken from ChEMBL document CHEMBL1145332, “Design of inhibitors of orotidine monophosphate decarboxylase using bioisosteric replacement and determination of inhibition kinetics” (J Med Chem, 2006).
